Source: US20070207154A1, “METHOD OF MODULATING VASCULARIZATION” (priority 2004, published 2007)

Tested on: sprouting from wild-type, TFΔCT and PAR-2-deficient aortas
Test: ex vivo angiogenesis assay (aortic ring sprouting in Matrigel)
Format: cell-based, mouse
Conditions: for sprouting induced by single factor replacing serum: wild-type and TFΔCT aortas, EGM without serum, day 4, growth factors 20 ng/ml, VIIa 50 nM (FIG. 2c)
Experimental: Angiogenesis assays. The ex vivo angiogenesis assay was adopted from the rat aortic sprouting model described by Masson et al. Biol. Proced. […] Thoracic aortas from 8-11 week old wild-type, TFΔCT, PAR-2-deficient, and TFΔCT/PAR-2-deficient mice of either sex were embedded in Matrigel, and overlaid with EGM supplemented with 5% serum, growth factors, or inhibitors at the following concentrations: VEGF, bFGF, and PDGF: 20 ng/ml; hirudin: 500 nM, VIIai: […], NAPc2: […], NAP5: 1 μM, VIIa: 50 nM. In most cases, the number of aortic sprouts was determined at day 3 and 4 without knowledge of the genotype. Aortic ring RNA was isolated by Trizol (Invitrogen) extraction using standard procedures, digested with DNAaseI, followed by RT-PCR for β-actin and TF. […] Tests used 2 different virus doses, referred to as high (1.1×10^10 virus particles/ml) and low (5×10^9 particles/ml). For confocal fluorescence microscopy, aortic pieces with a minimum of surrounding Matrigel were fixed with 4% paraformaldehyde and methanol, incubated with primary and secondary antibodies (24 hours each), and mounted in anti-fade medium (Vector laboratories). Alternatively, cryosections of OCT-embedded aortas were fixed with acetone and stained as described above.

Substance | sprouting induced by single factor replacing serum | effect of protease inhibitor on aortic sprouting (wild-type and TFΔCT aortas in serum, 3 days, hirudin 500 nM, NAP5 1 μM (FIG. 2b)) | sprouting of aortas stimulated with VEGF in the absence of serum (VEGF 20 ng/ml, no serum, day 3 (FIG. 2a)) | difference in sprouting TFΔCT versus wild-type aortas with serum supplemented with VEGF (serum plus VEGF 20 ng/ml, day 3 (FIG. 2a))
bFGF: pro-angiogenic growth factor | None of these factors promoted substantial sprouting | – | – | –
hirudin [reference compound] | – | no effect on sprouting | – | –
VEGF | None of these factors promoted substantial sprouting | – | very limited sprouting | did not abolish the difference in sprouting
PDGF-AA: selective agonist for PDGF receptor a | None of these factors promoted substantial sprouting | – | – | –
